Here are results for 1 substance from patent US20030119067A1, “PYK2 related products and methods” (Sugen, Inc., priority 1996, published 2003).

Format in all cases: cell-based, rat
The subject of one assay is PYK2. Description: Tyrosine phosphorylation of PYK2 in PC12 cells (immunoprecipitation, anti-phosphotyrosine immunoblot). The following applies: PC12 cells, 37° C.
The next assay deals with Src. As to the kind of experiment: Src kinase activity in PC12 cells. The following applies: PC12 cells stimulated with LPA or bradykinin. As for the experimental part: (§1) Sadoshima & Izumo, EMBO J. 15:775-787 (1996); Wan et al., Nature 380:541-544 (1996). The EGF-receptor and erbB2 were also implicated in MAP kinase activation induced by LPA and other agonists of G-protein coupled receptors. Daub et al., Nature 379:557-564 (1996). We have tested whether LPA and bradykinin can activate Src and the EGF receptor in PC12 cells.
(§2) PC12 cells were left untreated (−) or stimulated with LPA (2.5 mM) or bradykinin (1 mM) for 3 min at 37° C. Src was immunoprecipitated and immunoblotted with antibodies against Src, anti-pY416^src antibodies or antibodies against PYK2.

Another assay relates to EGF receptor. Description: Activation of EGF receptor in PC12 cells.
Description: as §1

Another assay relates to PYK2/Src complex. Description: Association of PYK2 with activated Src in PC12 cells (co-immunoprecipitation). Particulars: LPA 2.5 mM or bradykinin 1 mM, 3 min, 37° C.
Description: We examined the possibility of association between the two protein tyrosine kinases PYK2 and Src in response to LPA or bradykinin stimulation. Lysates from stimulated or unstimulated cells were subjected to immunoprecipitation with antibodies against Src followed by immunoblotting with antibodies against PYK2, against Src or anti-pY416src antibodies that specifically recognize activated Src. Liu et al., Oncogene 8:1119-1126 (1993).
as §2

As to lysophosphatidic acid [LPA], the “tyrosine phosphorylation of PYK2” value in the assay with PYK2 (LPA 2.5 mM or bradykinin 1 mM, 3 min) was “rapid tyrosine phosphorylation of PYK2”. The “increase in the phosphorylation state of PYK2 relative to unstimulated cells” value in the assay with PYK2 (LPA 2.5 mM, bradykinin 1 mM 3 min, PMA 1 mM 10 min) is 4 fold. Also, the “increase in Src kinase activity” value with Src is given as “approximately three to four”. For the same substance, the “activation of EGF receptor” value with EGF receptor is on record as “unable to detect”. For the same substance, the “complex formation of PYK2 with activated Src” value in the assay on PYK2/Src complex is “forms a complex with activated Src”.
